Measured values published in article PMC8630787 (ACS Sensors, 2021).

The molecules below were run against dihydroorotate dehydrogenase (DHODH) (Homo sapiens, UniProt Q02127) (assay: colorimetric DCIP reduction enzyme assay ([…] DHODH, L-DHO, coenzyme Q10)).
Type: biochemical

dihydroorotate dehydrogenase (DHODH), sequence (Q02127 whole entry): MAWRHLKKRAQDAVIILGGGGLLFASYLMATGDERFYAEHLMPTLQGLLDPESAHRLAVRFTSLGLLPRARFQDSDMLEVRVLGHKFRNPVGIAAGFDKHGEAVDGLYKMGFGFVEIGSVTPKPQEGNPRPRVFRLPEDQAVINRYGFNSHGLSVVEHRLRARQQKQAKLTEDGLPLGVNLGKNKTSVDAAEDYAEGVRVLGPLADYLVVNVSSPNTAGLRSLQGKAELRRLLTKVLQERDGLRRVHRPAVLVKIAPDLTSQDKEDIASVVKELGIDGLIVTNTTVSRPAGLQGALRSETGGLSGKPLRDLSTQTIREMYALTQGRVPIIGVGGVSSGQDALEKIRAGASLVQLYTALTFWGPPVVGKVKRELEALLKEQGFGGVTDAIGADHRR

`C/C(O)=C(\C#N)C(=O)Nc1ccc(OC(F)(F)F)cc1` [CF3O-TF] was tested. Which IC50 did it give?
Its IC50 is 330 nM.

How did the IC50 turn out when `C/C(O)=C(\C#N)C(=O)Nc1ccc(S(F)(F)(F)(F)F)cc1` [SF5-TF] was run?
The IC50 was 580 nM.

Which IC50 does the source give for `C/C(O)=C(\C#N)C(=O)Nc1cc(C(F)(F)F)cc(C(F)(F)F)c1` [di-CF3-TF] here?
Its IC50 is 1320 nM.
